Data reported in US9949475B2, “Composition comprising active ingredient, oil and ionic liquid” (priority 2011, dated 2018).
≈ marks a conversion by molar mass, not a printed value. Where two headings read alike, the source gives them in different places.

Experiment: Solubility of agrochemical active ingredient in oil comprising ionic liquid
Format: physicochemical
Settings: for solubility: 21 °C, thermodynamic from solid
Source text: Alternatively, the oil, which comprised the ionic liquid, was saturated with the active ingredient and the soluble fraction of active ingredient was quantified by means of HPLC. In the first line of the tables, in each case the weight ratios of oil to IL are given.

## Cn1cc(C(=O)Nc2ccccc2-c2cc(F)c(F)c(F)c2)c(C(F)F)n1 [fluxapyroxad, 3-(difluoromethyl)-1-methyl-N-(3′,4′,5′-trifluorobiphenyl-2-yl)pyrazole-4-carboxamide]
21° C., Oil/IL 20/80 weight ratio, IL N-butyl-N′-methylimidazolium acetate
  Solubility of fluxapyroxad with Agnique AMD 12 ® (N,N-dimethyldodecanamide, lauryl N,N-dimethylamide) as oil: 43.1 mg/mL
21° C., Oil/IL 20/80 weight ratio, IL N-ethyl-N′-methylimidazolium acetate
  Solubility of fluxapyroxad with Agnique AMD 12 ® (N,N-dimethyldodecanamide, lauryl N,N-dimethylamide) as oil: 39.5 mg/mL
21° C., Oil/IL 20/80 weight ratio, IL N-ethyl-N′-methylimidazolium isononanoate
  Solubility of fluxapyroxad with Agnique AMD 12 ® (N,N-dimethyldodecanamide, lauryl N,N-dimethylamide) as oil: 38.4 mg/mL
21° C., Oil/IL 20/80 weight ratio, IL Tetrabutylammonium [2-(2-methoxyethoxy)ethoxy]acetate
  Solubility of fluxapyroxad with Agnique AMD 12 ® (N,N-dimethyldodecanamide, lauryl N,N-dimethylamide) as oil: 37.5 mg/mL
21° C., Oil/IL 60/40 weight ratio, IL N-butyl-N′-methylimidazolium acetate
  Solubility of fluxapyroxad with Agnique AMD 12 ® (N,N-dimethyldodecanamide, lauryl N,N-dimethylamide) as oil: 55.9 mg/mL
21° C., Oil/IL 60/40 weight ratio, IL N-ethyl-N′-methylimidazolium acetate
  Solubility of fluxapyroxad with Agnique AMD 12 ® (N,N-dimethyldodecanamide, lauryl N,N-dimethylamide) as oil: 40.4 mg/mL
21° C., Oil/IL 60/40 weight ratio, IL N-ethyl-N′-methylimidazolium isononanoate
  Solubility of fluxapyroxad with Agnique AMD 12 ® (N,N-dimethyldodecanamide, lauryl N,N-dimethylamide) as oil: 48.1 mg/mL
21° C., Oil/IL 60/40 weight ratio, IL Tetrabutylammonium [2-(2-methoxyethoxy)ethoxy]acetate
  Solubility of fluxapyroxad with Agnique AMD 12 ® (N,N-dimethyldodecanamide, lauryl N,N-dimethylamide) as oil: 33.1 mg/mL
21° C., Oil/IL 90/10 weight ratio, IL N-ethyl-N′-methylimidazolium acetate
  Solubility of fluxapyroxad with Agnique AMD 12 ® (N,N-dimethyldodecanamide, lauryl N,N-dimethylamide) as oil: 38.2 mg/mL
21° C., Oil/IL 90/10 weight ratio, IL Tetrabutylammonium [2-(2-methoxyethoxy)ethoxy]acetate
  Solubility of fluxapyroxad with Agnique AMD 12 ® (N,N-dimethyldodecanamide, lauryl N,N-dimethylamide) as oil: 29.7 mg/mL
Oil or lipid, 21° C., Oil/IL 20/80 weight ratio, IL N-ethyl-N′-ethylimidazolium propionate, read-out: Solubility of fluxapyroxad with Solvesso ® 200 ND as oil
  solubility: 39.4 mg/mL
Oil or lipid, 21° C., Oil/IL 20/80 weight ratio, IL N-ethyl-N′-methylimidazolium isononanoate, read-out: Solubility of fluxapyroxad with Solvesso ® 200 ND as oil
  solubility: 28.6 mg/mL
Oil or lipid, 21° C., Oil/IL 60/40 weight ratio, IL N-ethyl-N′-ethylimidazolium propionate, read-out: Solubility of fluxapyroxad with Solvesso ® 200 ND as oil
  solubility: 50.5 mg/mL
Oil or lipid, 21° C., Oil/IL 60/40 weight ratio, IL N-ethyl-N′-methylimidazolium isononanoate, read-out: Solubility of fluxapyroxad with Solvesso ® 200 ND as oil
  solubility: 42.9 mg/mL
Oil or lipid, 21° C., Oil/IL 90/10 weight ratio, IL N-ethyl-N′-ethylimidazolium propionate, read-out: Solubility of fluxapyroxad with Solvesso ® 200 ND as oil
  solubility: 21.3 mg/mL
Oil or lipid, 21° C., Oil/IL 90/10 weight ratio, IL N-ethyl-N′-methylimidazolium isononanoate, read-out: Solubility of fluxapyroxad with Solvesso ® 200 ND as oil
  solubility: 15.3 mg/mL
Oil or lipid, 21° C., Oil/IL 90/10 weight ratio, IL Tetrabutylammonium [2-(2-methoxyethoxy)ethoxy]acetate, read-out: Solubility of fluxapyroxad with Solvesso ® 200 ND as oil
  solubility: 18.4 mg/mL
Oil or lipid, Solubility of fluxapyroxad with Agnique AMD 12 ® (N,N-dimethyldodecanamide, lauryl N,N-dimethylamide) as oil
  solubility: 25.9 mg/mL (≈ 67.9 mM)
Organic solvent or mixture, 21° C., 100 IL (no oil), IL N-ethyl-N′-methylimidazolium isononanoate, read-out: Solubility of fluxapyroxad with Cetiol ® B as oil
  solubility: 9.5 mg/mL (≈ 24.9 mM)
Organic solvent or mixture, 21° C., 100 IL (no oil), IL N-ethyl-N′-methylimidazolium isononanoate, read-out: Solubility of fluxapyroxad with Solvesso ® 200 ND as oil
  solubility: 9.5 mg/mL (≈ 24.9 mM)
Organic solvent or mixture, 21° C., 100 IL (no oil), IL Tetrabutylammonium [2-(2-methoxyethoxy)ethoxy]acetate, read-out: Solubility of fluxapyroxad with Solvesso ® 200 ND as oil
  solubility: 9.5 mg/mL (≈ 24.9 mM)
Organic solvent or mixture, Solubility of fluxapyroxad with Agnique AMD 12 ® (N,N-dimethyldodecanamide, lauryl N,N-dimethylamide) as oil
  solubility: 5 mg/mL (≈ 13.1 mM)
Organic solvent or mixture, Solubility of fluxapyroxad with Cetiol ® B as oil
  solubility: 5 mg/mL (≈ 13.1 mM)
Organic solvent or mixture, Solubility of fluxapyroxad with Solvesso ® 200 ND as oil
  solubility: 5 mg/mL (≈ 13.1 mM)
Cetiol B / N-ethyl-N′-methylimidazolium isononanoate mixture, oil or lipid, 21° C., Oil/IL 20/80 weight ratio, IL N-ethyl-N′-methylimidazolium isononanoate, read-out: Solubility of fluxapyroxad with Cetiol ® B as oil
  solubility: 48.7 mg/mL
Cetiol B / N-ethyl-N′-methylimidazolium isononanoate mixture, oil or lipid, 21° C., Oil/IL 60/40 weight ratio, IL N-ethyl-N′-methylimidazolium isononanoate, read-out: Solubility of fluxapyroxad with Cetiol ® B as oil
  solubility: 46.7 mg/mL
Cetiol B / N-ethyl-N′-methylimidazolium isononanoate mixture, oil or lipid, 21° C., Oil/IL 90/10 weight ratio, IL N-ethyl-N′-methylimidazolium isononanoate, read-out: Solubility of fluxapyroxad with Cetiol ® B as oil
  solubility: 20.7 mg/mL
Cetiol B / cholinium octanoate mixture, oil or lipid, 21° C., Oil/IL 20/80 weight ratio, IL Cholinium octanoate, read-out: Solubility of fluxapyroxad with Cetiol ® B as oil
  solubility: 34.2 mg/mL
Cetiol B oil comprising ionic liquid, oil or lipid, 21° C., Oil/IL 20/80 weight ratio, IL N-butyl-N′-methylimidazolium acetate, read-out: Solubility of fluxapyroxad with Cetiol ® B as oil
  solubility: 54.9 mg/mL
Cetiol B oil comprising ionic liquid, oil or lipid, 21° C., Oil/IL 20/80 weight ratio, IL N-butyl-N′-methylimidazolium dimethylphosphate, read-out: Solubility of fluxapyroxad with Cetiol ® B as oil
  solubility: 44.1 mg/mL
Cetiol B oil comprising ionic liquid, oil or lipid, 21° C., Oil/IL 20/80 weight ratio, IL N-ethyl-N′-ethylimidazolium propionate, read-out: Solubility of fluxapyroxad with Cetiol ® B as oil
  solubility: 60.2 mg/mL
Cetiol B oil comprising ionic liquid, oil or lipid, 21° C., Oil/IL 20/80 weight ratio, IL N-ethyl-N′-methylimidazolium acetate, read-out: Solubility of fluxapyroxad with Cetiol ® B as oil
  solubility: 56.2 mg/mL
Cetiol B oil comprising ionic liquid, oil or lipid, 21° C., Oil/IL 20/80 weight ratio, IL N-ethyl-N′-methylimidazolium dibutylphosphate, read-out: Solubility of fluxapyroxad with Cetiol ® B as oil
  solubility: 16.8 mg/mL
Cetiol B oil comprising ionic liquid, oil or lipid, 21° C., Oil/IL 20/80 weight ratio, IL N-ethyl-N′-methylimidazolium heptanoate, read-out: Solubility of fluxapyroxad with Cetiol ® B as oil
  solubility: 28.4 mg/mL
Cetiol B oil comprising ionic liquid, oil or lipid, 21° C., Oil/IL 20/80 weight ratio, IL N-ethyl-N′-methylimidazolium octanoate, read-out: Solubility of fluxapyroxad with Cetiol ® B as oil
  solubility: 25.7 mg/mL
Cetiol B oil comprising ionic liquid, oil or lipid, 21° C., Oil/IL 20/80 weight ratio, IL N-propyl-N′-propylimidazolium acetate, read-out: Solubility of fluxapyroxad with Cetiol ® B as oil
  solubility: 59.2 mg/mL
Cetiol B oil comprising ionic liquid, oil or lipid, 21° C., Oil/IL 20/80 weight ratio, IL Tetrabutylammonium [2-(2-methoxyethoxy)ethoxy]acetate, read-out: Solubility of fluxapyroxad with Cetiol ® B as oil
  solubility: 38.3 mg/mL
Cetiol B oil comprising ionic liquid, oil or lipid, 21° C., Oil/IL 60/40 weight ratio, IL Cholinium octanoate, read-out: Solubility of fluxapyroxad with Cetiol ® B as oil
  solubility: 33.6 mg/mL
Cetiol B oil comprising ionic liquid, oil or lipid, 21° C., Oil/IL 60/40 weight ratio, IL N-butyl-N′-methylimidazolium acetate, read-out: Solubility of fluxapyroxad with Cetiol ® B as oil
  solubility: 50.6 mg/mL
